# Results as given in publication PMC9011347, “Small-Molecule Inhibitors Targeting Lipolysis in Human Adipocytes” (Journal of the American Chemical Society, 2022).
# Target: T1, ATGL and G0S2 (Homo sapiens, UniProt Q96AD5)
# T1 construct: expressed in transfected cells; host or cells: HEK293 cells; NG-497 added to the lysates
# Test: Co-immunoprecipitation of ATGL and G0S2
# Assay type: binding
# Conditions: NG-497 40 µM, HEK293 lysates, FLAG-ATGL and His-G0S2
# Experimental: Fig. S2: Effect of NG-497 on the protein-protein interaction of ATGL and G0S2 investigated by co-immunoprecipitation.
# HEK293 cells were co-transfected with FLAG-tagged ATGL and His-tagged G0S2 (both human). As controls, FLAG-tagged ATGL was co-expressed with His-LacZ, and His-tagged G0S2 with empty FLAG-vector (e-FLAG). (a) Protein expression of the indicated plasmid combinations was confirmed using anti-Xpress and anti-Flag antibodies. (b) Cell lysates were incubated with anti-FLAG M2 affinity beads in the presence or absence of NG-497 (40 µM). After extensive washing, bound proteins were eluted by boiling in SDS-containing sample buffer and subjected to Western blotting analysis. His-G0S2 was exclusively […]
# Data are representative for two
# (1 picture or pasted object on this page, not shown here)
# Co-immunoprecipitation. HEK293 cells were co-transfected with the indicated plasmid combinations using Metafectene (#T020-5.0; Biontex, Germany) according to the manufacturer’s instructions. […]
# Analysis of toxicity in HepG2 hepatocytes. […] Release of LDH into the medium was analyzed using the Cytotoxicity Detection Kit PLUS (LDH) (MilliporeSigma) according to the manufacturer’s instructions. Cytotoxicity was calculated as relative LDH release as compared to fully lysed cells. […]
# T1 sequence (Q96AD5 whole entry): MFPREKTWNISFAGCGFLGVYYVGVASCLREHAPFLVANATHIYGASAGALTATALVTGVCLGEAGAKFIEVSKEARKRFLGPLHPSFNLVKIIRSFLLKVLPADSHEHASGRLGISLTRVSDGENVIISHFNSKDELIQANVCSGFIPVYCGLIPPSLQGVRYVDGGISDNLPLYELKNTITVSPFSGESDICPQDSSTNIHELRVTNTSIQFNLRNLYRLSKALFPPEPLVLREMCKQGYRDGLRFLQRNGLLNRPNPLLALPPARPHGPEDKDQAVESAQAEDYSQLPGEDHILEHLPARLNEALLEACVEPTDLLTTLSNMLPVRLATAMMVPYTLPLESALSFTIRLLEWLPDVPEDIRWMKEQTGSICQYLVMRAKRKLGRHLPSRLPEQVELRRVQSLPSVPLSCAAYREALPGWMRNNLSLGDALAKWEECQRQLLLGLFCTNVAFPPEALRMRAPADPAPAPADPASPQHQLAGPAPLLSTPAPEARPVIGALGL
# T1 sequence (P27469 whole entry partner): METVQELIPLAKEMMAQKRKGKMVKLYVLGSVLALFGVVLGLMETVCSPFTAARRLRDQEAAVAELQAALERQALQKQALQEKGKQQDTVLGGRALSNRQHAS
structure (smiles),measurement,value
CCOc1ccc(-c2cc(OC)cc(C(=O)OC(C)C)n2)cc1 [NG-497],G0S2 binding to ATGL (co-immunoprecipitation),increased G0S2 binding
